The source of these data is patent US20090053138A1, “Stabilized Aptamers to Platelet Derived Growth Factor and their Use as Oncology Therapeutics” (priority 2002, published 2009).

Data set [1] has as its target T1, PDGF BB (Homo sapiens, UniProt P01127). The data set can be described thus: 3T3 cell proliferation assay (PDGF-BB induced). It counts as cell-based, rat. To be noted: for potency compared to ARC127: tyrosine kinase inhibitors. Further details: purchased PeproTech, Rocky Hill, N.J. Here is the method: 3T3 cells, a rat fibroblast cell line (ATCC, Manassas, Va.), were plated 3,000 cells/well in a 96 well plate one day prior to the start of the assay in 100 ul DMEM/10% FCS. The following day, cells were washed once with straight DMEM and then 75 ul DMEM/0.8% FCS was added to each well. […] Cells were incubated for 3 days. Following incubation 10 ul MTT (Promega, Madison, Wis.) was added to each well and incubated for an additional 1.5 hours. Media was then removed, 200 ul Isopropanol (2-propanol) was added to each well, cells were re-suspended thoroughly and absorbance at 570 nm was read on a 96 well plate reader.
(§1) 3T3 cells, which are derived from a rat fibroblast cell line (ATCC, Manassas, Va.), were used in a proliferation assay to test potency of modified ARC513 aptamers. 3T3 fibroblast cells have PDGF receptors on their cell-surface and respond to mitogen, e.g., PDGF stimulation by proliferation. The assay was performed as follows: 3T3 cells were plated 3,000 cells/well in a 96 well plate one day prior to the start of the assay in 100 ul DMEM/10% FCS. The following day, cells were washed once with straight DMEM and then 75 ul DMEM/0.8% FCS was added to each well. Then 25 ul of PDGF-BB (PeproTech, Rocky Hill, N.J.) at a 50 ng/ml final concentration was added to each well +/− aptamer condition to be tested. […] The functional PDGF aptamer dilutions usually consisted of 6 points in 2-fold serial dilutions.
Cells were incubated for 3 days. Following incubation 10 ul MTT (Promega, Madison, Wis.) was added to each well and incubated for an additional 1.5 hours. Media was removed, 200 μl Isopropanol (2-propanol) was added to each well, cells were re-suspended thoroughly and absorbance at 570 nm was read on a 96 well plate reader. The present example depicts the potency comparison of PDGF aptamer ARC: 513 to that of ARC 513 variants.
The 3T3 proliferation assay previously described was used to test potency of all PEG conjugated ARC513 variants described immediately above. The assay was performed as follows: 3T3 cells were plated 3,000 cells/well in a 96 well plate one day prior to the start of the assay in 100 ul DMEM/10% FCS. The following day, cells were washed once with straight DMEM and then 75 ul DMEM/0.8% FCS was added to each well. Then 25 ul of PDGF-BB (PeproTech, Rocky Hill, N.J.) at a 50 ng/ml final concentration was added to each well +/− aptamer condition to be tested. […] The functional PDGF aptamer dilutions usually consisted of 6 points in 2-fold serial dilutions.
Cells were incubated for 3 days. Following incubation 10 ul MTT (Promega, Madison, Wis.) was added to each well and incubated for an additional 1.5 hours. Media was removed, 200 μl Isopropanol (2-propanol) was added to each well, cells were re-suspended thoroughly and absorbance at 570 nm was read on a 96 well plate reader. The present example depicts the potency comparison of PDGF aptamer ARC513 to that of PEGylated ARC513 aptamers.
as §1, with “3T3” for “3T3 cells, which are derived from a rat fibroblast cell line (ATCC, Manassas, Va.), were used in a proliferation assay to test potency of modified ARC513 aptamers. 3T3”, “100 μl” for “100 ul”
Cells were incubated for 3 days. Following incubation 10 ul MTT (Promega, Madison, Wis.) was added to each well and incubated for an additional 1.5 hours. Media was removed, […] Isopropanol (2-propanol) was added to each well, cells were re-suspended thoroughly and absorbance at 570 nm was read on a 96 well plate reader.

Data set [2] deals with T1, PDGF BB. The data set can be described thus: Competition binding assay, PDGF-BB. As to conditions: Table 2, mean affinity, competitive binding assay; read-out: Affinity. More on the design: purchased PeproTech, Rocky Hill, N.J. The method, then: Binding reactions were carried out in phosphate-buffered saline (Cellgro, Herndon, Va.) containing 0.2 mg/mL bovine serum albumin (NEB) and 0.02 mg/mL tRNA (Sigma, St. Louis, Mo.). The reactions were equilibrated for a period of 15-30 minutes at room temperature, then filtered through a sandwich of nitrocellulose (Protran membrane, Perkin-Elmer, Boston, Mass.) and nylon (Hybond membrane, Amersham, Piscataway, N.J.) membranes to separate target bound aptamer from free aptamer.
Next, a study was done to determine whether ARC126 cross reacted with PDGF-BB of species other than human. Competition binding assays were set up by dot blot analysis, as previously described, using human, rat, and mouse PDGF-BB (PeproTech, Rocky Hill, N.J.).
The competitive binding assay previously described was used to determine the in vitro binding affinity and selectivity of ARC594 for different PDGF isoforms. Different concentrations of unlabeled, competitor aptamer were titrated in separate reactions against a fixed (<0.1 nM) amount of ^32P-radiolabeled ARC594 in buffer containing a fixed amount (0.1 nM) of the aptamer's cognate target (PDGF-BB; PeproTech). UnPEGylated version of ARC594 was radiolabeled at the 5′ terminus by incubation with γ-^32P-ATP (ICN) and polynucleotide kinase (NEB). Binding reactions were carried out in phosphate-buffered saline (Cellgro) containing 0.2 mg/mL bovine serum albumin (NEB) and 0.02 mg/mL tRNA (Sigma). The reactions were equilibrated for a period of 15-30 minutes at room temperature, then filtered through a sandwich of nitrocellulose (Protran membrane, Perkin-Elmer) and nylon (Hybond membrane, Amersham) membranes to separate target bound aptamer from free aptamer. […] The data was expressed as the ratio of the counts per minute (CPM) of radioactivity due to ^32P-ARC594 bound to PDGF BB on the nitrocellulose membrane (CPMnitrocellulose or CPMnc) over the total CPM (CPMtotal=CPMnitrocellulose+CPMnylon).

Data set [3] can be described thus: Pharmacokinetics of ARC126 5′ PEG conjugates in mice. To be noted: IV administration at 10 mg/kg in mice.
Text: The pharmacokinetic (PK) data shown in FIG. 12A was subjected to non-compartmental analysis (NCA) using the industry-standard software package WinNonLin™ v.4.0 (Pharsight Corp., Mountain View, Calif.). […] The pharmacokinetic (PK) data shown in FIG. 12B was subjected to noncompartmental analysis (NCA) using the industry-standard software package WinNonLin™ v.4.0 (Pharsight Corp., Mountain View, Calif.).
The pharmacokinetic (PK) data shown in FIG. 12B was subjected to noncompartmental analysis (NCA) using the industry-standard software package WinNonLin™ v.4.0 (Pharsight Corp., Mountain View, Calif.).
The subject of data set [4] is LS174T colon cancer xenograft. To be noted: Experiment 3. An excerpt:
Experimental overview. Human HT-29 or LS174T colon cancer xenotransplants were established in athymic nude mice (Nu/Nu mice, Charles River Labs, Wilmington, Mass.) by injecting mice with 1×10^7 HT29 cells (ATCC, Manassas, Va.), or 2×10^6 LS174T cells (ATCC Manassas, Va.) sub-cutaneously and allowing the tumors to grow for 5 days. On day 5, two dimensional measurements of the established tumors were taken using a digital caliper. Once tumor measurements were taken, the mice were randomized into groups such that the average tumor size was the same in each group. […]
A third experiment (Experiment 3) was designed to test ARC308/irinotecan and GLEEVEC™/irinotecan dosing regimens in a colon cancer xenotransplant model using human colon carcinoma cell line LS174T (ATCC). […] ARC308 was dosed via intraperitoneal delivery at 50 mg/kg once daily, and GLEEVEC™ was dosed at 50 mg/kg once daily, Monday through Friday. ARC308 prevents PDGF-BB from binding the PDGF receptor; this molecule has a 30K PEG attached. […] The results are statistically significant (two tailed students T-test).
An efficacy analysis of three treatment groups in this study is shown in Table 10 in terms of log cell kill and log cell kill net. Log cell kill is the log(base10) of the number of tumor cells before treatment divided by the number of cells after treatment. […] A fourth experiment (Experiment 4) was designed to further test ARC308/irinotecan dosing regimens in a colon cancer xenotransplant model using human colon carcinoma cell line LS174T (ATCC). […]

The mark [5] stands for this setting: Table 2, mean activity, 3T3 proliferation assay, read-out: Activity.

Where two headings read alike, the source gives them in different places. [invdT] = inverted (3'-3') thymidine

T1 sequence (P01127 82-190 limits assumed): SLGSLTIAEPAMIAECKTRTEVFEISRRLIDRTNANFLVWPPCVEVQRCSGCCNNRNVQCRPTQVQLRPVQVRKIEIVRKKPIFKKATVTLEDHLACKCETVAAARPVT

Turning to “5′-(SEQ ID NO: 36)-PEG-(SEQ ID NO: 37)-PEG-(SEQ ID NO: 38)-[3′]-3′ (chain 1 CAGGCTACG; chain 2 CGTAGAGCATCA; chain 3 TGATCCTG; piece 1: 2'-O-methyl at 9, other sugars and backbone not given here; piece 2: 2'-O-methyl at 5, 7, 12, other sugars and backbone not given here; piece 3: 2'-O-methyl at 8, other sugars and backbone not given here; further chemistry not fully specified) [ARC276]”, the IC50 in data set [1] (setting [5]) is 18 nM. The Kd in data set [2] is 0.23 nM.

In the case of “5′-(SEQ ID NO: 69)-PEG-(SEQ ID NO: 40)-PEG-(SEQ ID NO: 70)-[3′T]-3′ (chain 1 CCCAGGCTACG; chain 2 CGTAGAGCAUCA; chain 3 TGATCCTGGG; piece 1: 2'-O-methyl at 11, other sugars and backbone not given here; piece 2: 2'-O-methyl at 5, 7, 10, 11, 12, other sugars and backbone not given here; piece 3: 2'-O-methyl at 5, 8, 9, 10, 3' [invdT], other sugars and backbone not given here; pieces joined by PEG spacers) [ARC513]”, in data set [1] (PDGF-BB 50 ng/ml, read-out: IC50 values routinely displayed), the IC50 is under 10 nM.

As to “5′-[20K PEG]-(SEQ ID NO:1)-HEG-(SEQ ID NO:2)-HEG-(SEQ ID NO:3)-3′-dT-3′ (chain 1 CAGGCUACG; chain 2 CGTAGAGCAUCA; chain 3 TGATCCUG; 5′ 20 kDa PEG; HEG spacers; 3′ dT cap; synthetic aptamer; modified_base (6)..(6) uridine is 2′-fluoro; modified_base (8)..(8) cytidine is 2′-fluoro; modified_base (9)..(9) gm; modified_base (5)..(5) gm; modified_base (7)..(7) gm; modified_base (10)..(10) uridine is 2′-fluoro; modified_base (11)..(11) cytidine is 2′-fluoro; modified_base (12)..(12) adenosine is 2′-O-Methyl; modified_base (5)..(6) cytidine is 2′-fluoro; modified_base (7)..(7) uridine is 2′-fluoro; modified_base (8)..(8) gm) [ARC240]”, in data set [3], the Cmax was 34.3 µM, the “MRT” value stood at 1.16 h, the “Vs” value is 0.0003 L/kg and the “t1/2” value is 0.94 h.

For “124 (ACCATGATCCTGTG; 3' inverted dT, further chemistry not given here) [compound 124]”, the IC50 turned out to be 3.45 nM in data set [1] (setting [5]) and 20.7 nM in data set [1] (Table 6, PDGF-BB 50 ng/ml, nM, read-out: Mean IC50). Also, the Kd in data set [2] came out at 0.21 nM.

For `Cc1cc2ncc(-c3ccccc3)nc2cc1C` [AG 1295, reference compound], the “potency compared to ARC127” value in data set [1] is listed as “much worse potencies”.

On to `Cc1cc2ncc(-c3ccc(O)c(O)c3)nc2cc1C` [AG 1433, reference compound], for which the “unspecific toxic effects, concentration from which visible” value in data set [1] (signal lower than no treatment) was at least 300 nM. Moreover, the “potency compared to ARC127” value in data set [1] is recorded as “much worse potencies”.

Consider `CCc1c2c(nc3ccc(OC(=O)N4CCC(N5CCCCC5)CC4)cc13)-c1cc3c(c(=O)n1C2)COC(=O)[C@]3(O)CC` [Irinotecan, irinotecan, reference compound], for which, in data set [4], the “Activity Assessment” value was “Active”. In data set [4] (target size 1000 mm^3, ARC308 50 mg/kg, irinotecan 150 mg/kg, combination extrapolated), the Log cell kill is reported as 1.95. The “Log cell kill net” value in data set [4] (treatment duration 18 days, combination extrapolated) was 0.28.

For the molecule “SEQ ID NO: 42-PEG-SEQ ID NO: 43-PEG-SEQ ID NO: 44 (chain 1 CAGGCTACG; chain 2 CGTAGAGCATCA; chain 3 TGATCCTG; DNA, backbone not given here; PEG-6 spacers join the three pieces) [ARC299]”, the “binding affinity and cell-based assay activity (in words)” value in data set [1] (in vitro biochemical binding and cell-based proliferation assays) is listed as “significantly reduced activity/potency”.
